B1: IFNγ: cytokine used to stimulate B16F10 cells (protein, UniProt P01580 23-155, looked up)
Interferon gamma: HGTVIESLESLNNYFNSSGIDVEEKSLFLDIWRNWQKDGDMKILQSQIISFYLRLFEVLKDNQAISNNISVIESHLITTFFSNSKAKKDAFMSIAKFEVNNPQVQRQAFNELIRVVHQLLPESSLRKRKRSRC

How the values were obtained:
Format in all cases: cell-based, mouse
[1] = tested on: Otulin, Dusp6 and Nf1 knockout B16F10 cells; experiment: Doxorubicin-induced cell death; conditions: Dusp6 or Nf1 inactivated B16F10-Cas9 cells vs control cells, 24 or 48 hours
Description: The knockout cell lines (GFP+) were mixed with control cells (GFP−) at 1:1 ratio. The mixture of cells was then seeded at 200,000 cells/well in a 6-well plate. Eighteen hours after seeding, different doses of doxorubicin (Sigma-Aldrich, D1515) as indicated in FIG. 11 were added to the cell culture (triplicate wells per condition). After 24 or 48 hours, cells were harvested and stained with DAPI (5 μg/ml) for 5 minutes in PBS with 2% FBS at room temperature. The ratio of GFP+/GFP−was determined by FACS (gated on DAPI− for live cells).

[2] = tested on: B16F10-Cas9 cells pulsed with SIINFEKL peptide, co-cultured with OT-I T cells; experiment: Genome-scale CRISPR-Cas9 screen, selection with OT-I T cells; conditions: Table 3; B16F10-Cas9 cells pulsed with SIINFEKL, co-cultured with OT-I T cells 1:1 for one day; negative = depleted, positive = enriched
[3] = tested on: B16F10-Cas9 cells co-cultured with Pmel-1 T cells; experiment: Genome-scale CRISPR-Cas9 screen, selection with Pmel-1 T cells; conditions: Table 3; B16F10-Cas9 cells pre-treated with IFNγ, co-cultured with Pmel-1 T cells 1:1 for three days; negative = depleted, positive = enriched
B16F10-Cas9 cells = experiment: PD-L1 expression by FACS after IFNγ stimulation (Cas9 editing efficiency of B16F10-Cas9 clones); conditions: B16F10 tumor cells, IFNγ 10 ng/ml for 24 hours
Description: To acquire clones with high Cas9 activity, B16F10-Cas9 cells were single-cell sorted into 96-well plates. Multiple were infected with lentivirus driving expression of a gRNA specific for Cd274 and mCherry. Ten days post-infection, each individual clone was stimulated with 10 ng/ml of IFNγ for 24 hours and the expression of PD-L1 was determined by fluorescence-activated cells sorting (FACS) using an anti-Cd274 antibody (clone 10F.9G2, BioLegend, #124311). Cas9 efficiency was determined by the percentage of PD-L1 negative cells in the transduced (mCherry+) population.

Molecule | sensitivity to doxorubicin induced cell death [1] | OT1 (sgRNA Log(2) fold change, OT-I selection versus control T cells) [2] | Pmel+ (sgRNA Log(2) fold change, Pmel-1 selection versus control T cells) [3] | PD-L1 expression (B16F10-Cas9 cells)
COc1cccc2c1C(=O)c1c(O)c3c(c(O)c1C2=O)C[C@@](O)(C(=O)CO)C[C@@H]3O[C@H]1C[C@H](N)[C@H](O)[C@H](C)O1 [doxorubicin] | did not render them more sensitive |  |  | 
TCTTAAAGCTACGGTGTAAG (chemistry not fully specified) |  | -2.41 | -0.87 | 
TCTTCAGGAGAGAATACCAT (chemistry not fully specified) |  | 3.69 | 3.86 | 
TCTTGAAAACTATAGTACTC (chemistry not fully specified) |  | -2.40 | -2.12 | 
TGAAGCTAATGACCATGAGC (chemistry not fully specified) |  | -2.77 | -0.59 | 
TGAATAAATCCATCAGACAG (chemistry not fully specified) |  | 2.46 | 9.92 | 
TGAGTATACTTGAATTTGAG (chemistry not fully specified) |  | 5.51 | 3.55 | 
TGATAATAGATAAACGACCA (chemistry not fully specified) |  | -3.36 | 0.05 | 
TGATGAGCAGATTCTAACTT (chemistry not fully specified) |  | 3.81 | 5.03 | 
TGATGCTGGCCTCTATACTG (chemistry not fully specified) |  | -3.28 | -1.90 | 
TGCACAGCATACACTAGTGA (chemistry not fully specified) |  | -2.96 | -1.65 | 
TGGAACCTCCTGATCCGCTG (chemistry not fully specified) |  | -4.60 | 0.12 | 
TGGAATTATGGTCAAAGTAG (chemistry not fully specified) |  | -2.20 | 0.96 | 
TGGACATGAGCCATATGTTG (chemistry not fully specified) |  | -0.14 | 3.35 | 
TGGACCTCCGAAAAACATCT (chemistry not fully specified) |  | 3.78 | 5.37 | 
TGGTCTAGTTACCATGCAAG (chemistry not fully specified) |  | -3.50 | -0.83 | 
TGTAATGTAGGTCTCCCAGG (chemistry not fully specified) |  | -3.77 | -1.35 | 
TGTGAATGCTATGACGAGCT (chemistry not fully specified) |  | -2.59 | 0.02 | 

Molecule | sensitivity to doxorubicin induced cell death [1] | OT1 (sgRNA Log(2) fold change, OT-I selection versus control T cells) [2] | Pmel+ (sgRNA Log(2) fold change, Pmel-1 selection versus control T cells) [3] | PD-L1 expression (B16F10-Cas9 cells)
TGTGATGTTAGATAAACAGA (chemistry not fully specified) |  | 1.50 | 7.91 | 
TGTTCTAGGAAACTACATGG (chemistry not fully specified) |  | -2.76 | 1.10 | 
TGTTTGCAGTTAGCAAAACG (chemistry not fully specified) |  | -2.49 | 0.00 | 
TTAATGACGAGCTCGTGGAG (chemistry not fully specified) |  | 2.25 | 8.60 | 
TTACACGACCCGAATAGCGA (chemistry not fully specified) |  | -2.14 | 3.22 | 
TTACCCCCTACTACACTGGA (chemistry not fully specified) |  | -2.56 | -2.24 | 
TTACTGAGGCTCGATTGGGA (chemistry not fully specified) |  | -3.59 | 0.41 | 
TTAGTTCTGGCAAAGCGCCG (chemistry not fully specified) |  | -2.23 | -2.54 | 
TTATTGAGTCAAGAAAAGGT (chemistry not fully specified) |  | -3.67 | -1.87 | 
TTCAAAGCAAGGCTCTACTG (chemistry not fully specified) |  | -2.28 | -0.93 | 
TTCAGATTCAGACATCAGAT (chemistry not fully specified) |  | -2.07 | 0.00 | 
TTCAGGGTGAAATACGAGGA (chemistry not fully specified) |  | 3.43 | 5.32 | 
TTCGGACAAATACGACGACG (chemistry not fully specified) |  | -2.32 | 0.00 | 
TTGTCCGCGTTACTTCCCTG (chemistry not fully specified) |  | -2.50 | 0.07 | 
TTGTGAGGCAAACTGAACGA (chemistry not fully specified) |  | -2.11 | -0.86 | 
TTGTGCCTAAACAAAAAACA (chemistry not fully specified) |  | -2.52 | 0.85 | 
TTTACAATCCTCCAAAGTCG (chemistry not fully specified) |  | -3.13 | -0.68 | 
B1 |  |  |  | strong upregulation

Source: patent US11820822B2, “Methods for sensitizing cancer cells to T cell-mediated killing by modulating molecular pathways” (DANA-FARBER CANCER INSTITUTE, INC., priority 2017, dated 2023)
